Assays:
large (Lg) crabgrass [1] = assay: Test A preemergence; format: in vivo, Digitaria sanguinalis; settings: Digitaria sanguinalis, pre-emergence, 240 h
How it was run: (§1)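 Visual injury scored 0–100 (100 = complete control) against untreated controls about 10 days after treatment in a greenhouse. Test chemicals, formulated with surfactant in non-phytotoxic solvent, were sprayed on soil preemergence or on 2-10 cm, one- to two-leaf plants postemergence.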

large (Lg) crabgrass [2] = assay: Test C postemergence; format: in vivo, Digitaria sanguinalis; settings: Digitaria sanguinalis, post-emergence
How it was run: (§2)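 Greenhouse herbicide screen. Pre: seeded loam/sand, sprayed at planting. Post: 1–4 leaf plants (2–18 cm) in peat-based mix. Formulation: solvent mixture + surfactant, non-phytotoxic. Readout: visual % control vs untreated, 13–15 d; dash = not tested.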

johnsongrass [3] = assay: Test C postemergence; format: in vivo, Sorghum halepense; settings: Sorghum halepense, post-emergence
How it was run: as §2

blackgrass = assay: Test C preemergence; format: in vivo, Alopecurus myosuroides; settings: Alopecurus myosuroides, pre-emergence
How it was run: as §2

waterhemp = assay: Test C postemergence; format: in vivo, Amaranthus rudis; settings: Amaranthus tuberculatus, post-emergence
How it was run: as §2

giant foxtail [4] = assay: Test A postemergence; format: in vivo, Setaria faberii; settings: Setaria faberi, post-emergence, 240 h
How it was run: as §1

pigweed [5] = assay: Test A postemergence; format: in vivo, Amaranthus retroflexus; settings: Amaranthus retroflexus, post-emergence
How it was run: as §1

oilseed rape = assay: Test C postemergence; format: in vivo, Brassica napus; settings: Brassica napus, post-emergence
How it was run: as §2

corn = assay: Test C postemergence; format: in vivo, Zea mays; settings: Zea mays, post-emergence
How it was run: as §2

velvetleaf = assay: Test C postemergence; format: in vivo, Abutilon theophrasti; settings: Abutilon theophrasti, post-emergence
How it was run: as §2

ragweed = assay: Test C preemergence; format: in vivo, Ambrosia elatior; settings: Ambrosia artemisiifolia, pre-emergence
How it was run: as §2

giant foxtail [6] = assay: Test C preemergence; format: in vivo, Setaria faberii; settings: Setaria faberi, pre-emergence
How it was run: as §2

large (Lg) crabgrass [7] = assay: Test A postemergence; format: in vivo, Digitaria sanguinalis; settings: Digitaria sanguinalis, post-emergence, 240 h
How it was run: as §1

pigweed [8] = assay: Test A preemergence; format: in vivo, Amaranthus retroflexus; settings: Amaranthus retroflexus, pre-emergence
How it was run: as §1

johnsongrass [9] = assay: Test C preemergence; format: in vivo, Sorghum halepense; settings: Sorghum halepense, pre-emergence
How it was run: as §2

[10] = 125 g ai/ha, 0 to 100 scale where 0 is no effect and 100 is complete control, read-out: Plant response rating, Crabgrass, Large
[11] = 125 g ai/ha, 0 to 100 scale where 0 is no effect and 100 is complete control, read-out: Plant response rating, Pigweed

**Q.** What does the source list for `N#Cc1cccc(Oc2ncc(Br)cn2)c1-n1cc(C(F)(F)F)cn1` [Compound 59, 3-[(5-bromo-2-pyrimidinyl)oxy]-2-[4-(trifluoromethyl)-1H-pyrazol-1-yl]benzonitrile]?
**A.** pest or weed control at 125 g/ha (large (Lg) crabgrass [1]; [10]): 100%; pest or weed control at 500 g/ha (large (Lg) crabgrass [1]; 500 g ai/ha, 0 to 100 scale, 0 no effect, 100 complete control, approx. 10 days, read-out: Crabgrass, Large plant response rating): 100%; pest or weed control at 125 g/ha (large (Lg) crabgrass [2]; 125 g ai/ha, postemergence, read-out: Plant response rating (0 to 100), Crabgrass, Large): 30%; pest or weed control at 250 g/ha (large (Lg) crabgrass [2]; 250 g ai/ha, postemergence, read-out: Plant response rating (0 to 100), Crabgrass, Large): 40%; pest or weed control at 31 g/ha (large (Lg) crabgrass [2]; Postemergence, 31 g ai/ha, scale 0 to 100 (0 no effect, 100 complete control), 13 to 15 days, read-out: Plant response rating, Crabgrass, Large): 10%; pest or weed control at 62 g/ha (large (Lg) crabgrass [2]; Postemergence, 62 g ai/ha, scale 0 to 100 (0 no effect, 100 complete control), read-out: Plant response rating, Crabgrass, Large): 10%; pest or weed control at 125 g/ha (johnsongrass [3]; 125 g ai/ha, postemergence, read-out: Plant response rating (0 to 100), Johnsongrass): 35%; pest or weed control at 250 g/ha (johnsongrass [3]; 250 g ai/ha, postemergence, read-out: Plant response rating (0 to 100), Johnsongrass): 85%; pest or weed control at 31 g/ha (johnsongrass [3]; Postemergence, 31 g ai/ha, scale 0 to 100 (0 no effect, 100 complete control), 13 to 15 days, read-out: Plant response rating, Johnsongrass): 15%; pest or weed control at 62 g/ha (johnsongrass [3]; Postemergence, 62 g ai/ha, scale 0 to 100 (0 no effect, 100 complete control), read-out: Plant response rating, Johnsongrass): 35%; pest or weed control at 62 g/ha (blackgrass; 62 g ai/ha, preemergence, scale 0 (no effect) to 100 (complete control), read-out: Blackgrass plant response rating): 85%; pest or weed control at 125 g/ha (blackgrass; 125 g ai/ha, preemergence, scale 0 (no effect) to 100 (complete control), read-out: Blackgrass plant response rating): 90%; pest or weed control at 250 g/ha (blackgrass; 250 g ai/ha, preemergence, scale 0 (no effect) to 100 (complete control), read-out: Blackgrass plant response rating): 90%; pest or weed control at 31 g/ha (blackgrass; Preemergence, 31 g ai/ha, scale 0 to 100, 0 no effect, 100 complete control, read-out: Plant response rating, Blackgrass): 5%; pest or weed control at 125 g/ha (waterhemp; 125 g ai/ha, postemergence, read-out: Plant response rating (0 to 100), Waterhemp): 90%; pest or weed control at 250 g/ha (waterhemp; 250 g ai/ha, postemergence, read-out: Plant response rating (0 to 100), Waterhemp): 98%; pest or weed control at 31 g/ha (waterhemp; Postemergence, 31 g ai/ha, scale 0 to 100 (0 no effect, 100 complete control), 13 to 15 days, read-out: Plant response rating, Waterhemp): 85%; pest or weed control at 62 g/ha (waterhemp; Postemergence, 62 g ai/ha, scale 0 to 100 (0 no effect, 100 complete control), read-out: Plant response rating, Waterhemp): 85%; pest or weed control at 125 g/ha (giant foxtail [4]; 125 g ai/ha, 0 to 100 scale where 0 is no effect and 100 is complete control, read-out: Plant response rating, Foxtail, Giant): 100%; pest or weed control at 500 g/ha (giant foxtail [4]; 500 g ai/ha, 0 to 100 scale, 0 no effect, 100 complete control, read-out: Plant response rating Foxtail, Giant): 100%; pest or weed control at 125 g/ha (pigweed [5]; [11]): 100%; pest or weed control at 500 g/ha (pigweed [5]; 240 h, 500 g ai/ha, 0 to 100 scale, 0 no effect, 100 complete control, read-out: Plant response rating Pigweed): 100%; plant injury at 125 g/ha (oilseed rape; 125 g ai/ha, postemergence, read-out: Plant response rating (0 to 100), Oilseed Rape): 85%; plant injury at 250 g/ha (oilseed rape; 250 g ai/ha, postemergence, read-out: Plant response rating (0 to 100), Oilseed Rape): 95%; plant injury at 31 g/ha (oilseed rape; Postemergence, 31 g ai/ha, scale 0 to 100 (0 no effect, 100 complete control), 13 to 15 days, read-out: Plant response rating, Oilseed Rape): 50%; plant injury at 62 g/ha (oilseed rape; Postemergence, 62 g ai/ha, scale 0 to 100 (0 no effect, 100 complete control), read-out: Plant response rating, Oilseed Rape): 50%; plant injury at 125 g/ha (corn; 125 g ai/ha, postemergence, read-out: Plant response rating (0 to 100), Corn): 15%; plant injury at 250 g/ha (corn; 250 g ai/ha, postemergence, read-out: Plant response rating (0 to 100), Corn): 20%; Corn plant response rating (crop injury, 0 = no effect, 100 = complete kill) at 31 g/ha (corn; Postemergence, 31 g ai/ha, scale 0 to 100 (0 no effect, 100 complete control), 13 to 15 days): 10%; Corn plant response rating (crop injury, 0 = no effect, 100 = complete kill) at 62 g/ha (corn; Postemergence, 62 g ai/ha, scale 0 to 100 (0 no effect, 100 complete control)): 15%; pest or weed control at 125 g/ha (velvetleaf; 125 g ai/ha, postemergence, read-out: Plant response rating (0 to 100), Velvetleaf): 55%; pest or weed control at 250 g/ha (velvetleaf; 250 g ai/ha, postemergence, read-out: Plant response rating (0 to 100), Velvetleaf): 70%; pest or weed control at 31 g/ha (velvetleaf; Postemergence, 31 g ai/ha, scale 0 to 100 (0 no effect, 100 complete control), 13 to 15 days, read-out: Plant response rating, Velvetleaf): 15%; pest or weed control at 62 g/ha (velvetleaf; Postemergence, 62 g ai/ha, scale 0 to 100 (0 no effect, 100 complete control), read-out: Plant response rating, Velvetleaf): 30%; pest or weed control at 62 g/ha (ragweed; 62 g ai/ha, preemergence, scale 0 (no effect) to 100 (complete control), read-out: Ragweed plant response rating): 95%; pest or weed control at 125 g/ha (ragweed; 125 g ai/ha, preemergence, scale 0 (no effect) to 100 (complete control), read-out: Ragweed plant response rating): 100%; pest or weed control at 250 g/ha (ragweed; 250 g ai/ha, preemergence, scale 0 (no effect) to 100 (complete control), read-out: Ragweed plant response rating): 100%; pest or weed control at 31 g/ha (ragweed; Preemergence, 31 g ai/ha, scale 0 to 100, 0 no effect, 100 complete control, read-out: Plant response rating, Ragweed): 90%; pest or weed control at 62 g/ha (giant foxtail [6]; 62 g ai/ha, preemergence, scale 0 (no effect) to 100 (complete control), read-out: Foxtail, Giant plant response rating): 98%; pest or weed control at 125 g/ha (giant foxtail [6]; 125 g ai/ha, preemergence, scale 0 (no effect) to 100 (complete control), read-out: Foxtail, Giant plant response rating): 100%; pest or weed control at 250 g/ha (giant foxtail [6]; 250 g ai/ha, preemergence, scale 0 (no effect) to 100 (complete control), read-out: Foxtail, Giant plant response rating): 100%; pest or weed control at 31 g/ha (giant foxtail [6]; Preemergence, 31 g ai/ha, scale 0 to 100, 0 no effect, 100 complete control, read-out: Plant response rating, Foxtail, Giant): 95%; pest or weed control at 125 g/ha (large (Lg) crabgrass [7]; [10]): 100%; pest or weed control at 500 g/ha (large (Lg) crabgrass [7]; 500 g ai/ha, 0 to 100 scale, 0 no effect, 100 complete control, read-out: Plant response rating Crabgrass, Large): 100%; pest or weed control at 125 g/ha (pigweed [8]; [11]): 100%; pest or weed control at 500 g/ha (pigweed [8]; 240 h, 500 g ai/ha, 0 to 100 scale, 0 no effect, 100 complete control, approx. 10 days, read-out: Pigweed plant response rating): 100%; pest or weed control at 62 g/ha (johnsongrass [9]; 62 g ai/ha, preemergence, scale 0 (no effect) to 100 (complete control), read-out: Johnsongrass plant response rating): 85%; pest or weed control at 125 g/ha (johnsongrass [9]; 125 g ai/ha, preemergence, scale 0 (no effect) to 100 (complete control), read-out: Johnsongrass plant response rating): 98%; pest or weed control at 250 g/ha (johnsongrass [9]; 250 g ai/ha, preemergence, scale 0 (no effect) to 100 (complete control), read-out: Johnsongrass plant response rating): 100%; pest or weed control at 31 g/ha (johnsongrass [9]; Preemergence, 31 g ai/ha, scale 0 to 100, 0 no effect, 100 complete control, read-out: Plant response rating, Johnsongrass): 60%

— patent US9695155B2, “Herbicidal substituted pyrimidinyloxy benzene compounds” (E. I. DU PONT DE NEMOURS AND COMPANY, priority 2013, dated 2017)
